# Measurements taken from patent publication US5675003A, “3-ammoniopropenyl cephalosporin compounds as antibacterial agents” (Korea Institute of Science and Technology, priority 1995, dated 1997).
# How the values were obtained:
# [1] = tested on: anti-pseudomonal; settings: in words, prior art; cited from earlier work
# [2] = tested on: staphylococci; settings: in words, prior art; cited from earlier work
# [3] = tested on: Pseudomonas aeruginosa 1771 M; experiment: MIC, in vitro agar dilution method; type: cell-based; settings: Pseudomonas aeruginosa, 1771M
# Description: (§1) The MICs of the new cephalosporins of the present invention against Gram-positive and Gram-negative bacteria were determined by an in vitro agar dilution method. For comparisons, the MIC values of ceftazidime are also listed.
# (§2) In vitro antimicrobial activity of the cephalosporins (l) (MIC:
# P.a.4, Pseudomonas aeruginosa 1771 M;
# [4] = tested on: Staphylococcus aureus 285; experiment: MIC, in vitro agar dilution method; type: cell-based; settings: Staphylococcus aureus, 285
# Description: as §1, §2
# E.c. TEM, S.a. 2, Staphylococcus aureus 285;
# [5] = tested on: Escherichia coli O55; experiment: MIC, in vitro agar dilution method; type: cell-based; settings: E.c.1, Escherichia coli O55
# Description: as §1, §2
# E.c.1, Escherichia coli O55;
# [6] = tested on: Streptococcus pyogenes 308 A; experiment: MIC, in vitro agar dilution method; type: cell-based; settings: Streptococcus pyogenes, 308A
# Description: as §1, §2
# S.p.1, Streptococcus pyogenes 308 A;
# [7] = tested on: Staphlococcus aureus SG 511; experiment: MIC, in vitro agar dilution method; type: cell-based
# Description: as §1, §2
# S.a.1, Staphlococcus aureus SG 511;
# [8] = tested on: Staphylococcus aureus 503; experiment: MIC, in vitro agar dilution method; type: cell-based; settings: Staphylococcus aureus, 503
# Description: as §1, §2
# S.a.3, Staphylococcus aureus 503;
# [9] = tested on: Enterobacter cloacae 1321 E; experiment: MIC, in vitro agar dilution method; type: cell-based; settings: Enterobacter cloacae, 1321E
# Description: as §1, §2
# En.c.2, Enterobacter cloacae 1321 E.
# [10] = tested on: Escherichia coli TEM; experiment: MIC, in vitro agar dilution method; type: cell-based; settings: E.c.3, Escherichia coli TEM
# Description: as §1, §2
# E.c.3, Escherichia coli TEM;
# [11] = tested on: E.c.5; experiment: MIC, in vitro agar dilution method; type: cell-based; settings: Escherichia coli, E.c.5 (strain not defined)
# Description: as §1
# [12] = tested on: Streptococcus faecium MD; experiment: MIC, in vitro agar dilution method; type: cell-based; settings: Enterococcus faecium
# Description: as §1, §2
# S.f., Streptococcus faecium MD;
# [13] = tested on: Escherichia coli 1507 E; experiment: MIC, in vitro agar dilution method; type: cell-based; settings: E.c.4, Escherichia coli 1507 E
# Description: as §1, §2
# E.c.4, Escherichia coli 1507 E;
# [14] = tested on: Enterobacter cloacae P 99; experiment: MIC, in vitro agar dilution method; type: cell-based
# Description: as §1, §2
# En.c.1, Enterobacter cloacae P 99;
# [15] = tested on: Pseudomonas aeruginosa 1592 E; experiment: MIC, in vitro agar dilution method; type: cell-based; settings: Pseudomonas aeruginosa, 1592E
# Description: as §1, §2
# P.a.2, Pseudomonas aeruginosa 1592 E;
# [16] = tested on: Salmonella typhimurium; experiment: MIC, in vitro agar dilution method; type: cell-based; settings: Salmonella enterica, TYPHIMURIUM
# Description: as §1, §2
# S.t., Salmonella typhimurium;
# [17] = tested on: Klebsiella aerogenes 1552 E; experiment: MIC, in vitro agar dilution method; type: cell-based; settings: Klebsiella aerogenes, 1552E
# Description: as §1, §2
# K.a., Klebsiella aerogenes 1552 E;
# [18] = tested on: Klebsiella oxytoca 1082 E; experiment: MIC, in vitro agar dilution method; type: cell-based; settings: Klebsiella oxytoca, 1082E
# Description: as §1, §2
# K.o., Klebsiella oxytoca 1082 E;
# [19] = tested on: Pseudomonas aeruginosa 9027; experiment: MIC, in vitro agar dilution method; type: cell-based; settings: Pseudomonas aeruginosa, 9027
# Description: as §1, §2
# P.a.1, Pseudomonas aeruginosa 9027;
# [20] = tested on: Escherichia coli DC0; experiment: MIC, in vitro agar dilution method; type: cell-based; settings: E.c.2, Escherichia coli DC0
# Description: as §1, §2
# E.c.2, Escherichia coli DC0;
# [21] = tested on: Streptococcus pyogenes A 77; experiment: MIC, in vitro agar dilution method; type: cell-based; settings: Streptococcus pyogenes, A77
# Description: as §1, §2
# S.p.2, Streptococcus pyogenes A 77;
# [22] = tested on: Enterobacter cloacae P99; settings: in words, prior art; cited from earlier work
# [23] = tested on: Pseudomonas eruginosa 1771; experiment: MIC, in vitro agar dilution method; type: cell-based; settings: P.a.3, Pseudomonas eruginosa 1771
# Description: as §1, §2
# P.a.3, Pseudomonas eruginosa 1771;
compound,measurement,setting,value
"CO/N=C(\C(=O)N[C@@H]1C(=O)N2C(C(=O)[O-])=C(C[N+]3(C)CCCC3)CS[C@H]12)c1csc(N)n1 [Cefepime, cefepime]",anti-pseudomonal activity,[1],high anti-pseudomonal activity
same,activity against staphylococci,[2],improved anti-staphylococcaI activity
"CC(C)(O/N=C(\C(=O)N[C@@H]1C(=O)N2C(C(=O)[O-])=C(C[n+]3ccccc3)CS[C@H]12)c1csc(N)n1)C(=O)O [Ceftazidime, ceftazidime, reference compound]",MIC,[3],0.098 µg/mL
same,MIC,[4],12.5 µg/mL
same,MIC,[5],0.098 µg/mL
same,MIC,[6],0.098 µg/mL
same,MIC,[7],12.5 µg/mL
same,MIC,[8],3.13 µg/mL
same,MIC,[9],0.025 µg/mL
same,MIC,[10],0.098 µg/mL
same,MIC,[11],0.2 µg/mL
same,MIC,[12],100 µg/mL
same,MIC,[13],0.2 µg/mL
same,MIC,"[14]; Enterobacter cloacae, P99",100 µg/mL
same,activity against Enterobacter cloacae P99,[14]; in words,resistant to ceftazidime
same,MIC,[15],0.78 µg/mL
same,MIC,[16],0.2 µg/mL
same,anti-pseudomonal activity,[1],potent anti-pseudomonal activity
same,MIC,[17],0.098 µg/mL
same,MIC,[18],0.39 µg/mL
same,MIC,[19],3.13 µg/mL
same,MIC,[20],0.098 µg/mL
same,activity against staphylococci,[2],less active against staphylococci
same,MIC,[21],0.049 µg/mL
same,activity against Enterobacter cloacae P99,[22],less active against staphylococci and Enterobacter cloacae P99
same,MIC,[23],0.39 µg/mL
